One experiment relates to Male Sprague-Dawley rats. Description: Rat paw edema assay (carrageenan-induced). The format is in vivo. Conditions: Rattus norvegicus, Table IV, po, 3 hr. The method, then: Male Sprague-Dawley rats (150-200 g) are fasted overnight and are given, po, either vehicle (1% methocel or 5% Tween 80) or a test compound. One hr later, a line is drawn using a permanent marker at the level above the ankle in one hind paw to define the area of the paw to be monitored. The paw volume (V0) is measured using a plethysmometer (Ugo-Basile, Italy) based on the principle of water displacement. The animals are then injected subplantarly with 50 µl of 1% carrageenan solution in saline (PMC Corp, Maine) into the paw using an insulin syringe with a 25-gauge needle (i.e. 500 µg carrageenan per paw). Three hr later, the paw volume (V3) is measured and the increases in paw volume (V3 - VO) are calculated. The animals are sacrificed by CO2 asphyxiation and the absence or presence of stomach lesions scored. Data is compared with the vehicle-control values and percent inhibition calculated. All treatment groups are coded to eliminate observer bias.

The target of another experiment is T1, CHO [hCOX-2] (Homo sapiens, UniProt P35354).
T1 construct: expressed in transfected cells; host or cells: CHO cells, stably transfected with pCDNAIII
T1 sequence (P35354 18-604): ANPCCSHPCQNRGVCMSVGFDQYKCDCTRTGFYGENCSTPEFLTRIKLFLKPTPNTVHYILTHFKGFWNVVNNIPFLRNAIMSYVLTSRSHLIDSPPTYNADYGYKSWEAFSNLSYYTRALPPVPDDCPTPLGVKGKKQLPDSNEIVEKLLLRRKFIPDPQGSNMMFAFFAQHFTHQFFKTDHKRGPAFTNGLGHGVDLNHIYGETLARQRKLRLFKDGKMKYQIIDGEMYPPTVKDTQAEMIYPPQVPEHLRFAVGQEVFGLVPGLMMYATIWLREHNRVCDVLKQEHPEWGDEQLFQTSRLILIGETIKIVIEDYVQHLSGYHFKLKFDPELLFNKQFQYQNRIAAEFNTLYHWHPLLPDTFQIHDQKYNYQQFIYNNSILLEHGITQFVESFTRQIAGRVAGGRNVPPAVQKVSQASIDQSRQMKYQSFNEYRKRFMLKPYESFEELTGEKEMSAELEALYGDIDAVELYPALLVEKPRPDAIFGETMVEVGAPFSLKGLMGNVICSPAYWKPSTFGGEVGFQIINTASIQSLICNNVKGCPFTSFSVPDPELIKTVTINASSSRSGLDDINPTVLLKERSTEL
In words: Whole cell assay for COX-2 using CHO transfected cell line (PGE2 synthesis). Particulars: CHO[hCOX-2] cells, 10 µM AA. The format is cell-based. The method, then:
Chinese hamster ovary (CHO) cell lines which have been stably transfected with an eukaryotic expression vector pCDNAIII containing either the human COX-1 or COX-2 cDNA's are used for the assay. These cell lines are referred to as CHO [hCOX-1] and CHO [hCOX-2], respectively. […] Cells (0.3 x 10^6 cells in 200 µl) are preincubated with 3 µl of the test drug or DMSO vehicle for 15 min at 37°C. […] Cells are then challenged in the presence or absence of drug with the AA/HBSS solution to yield a final concentration of 0.5 µM AA in the CHO[hCOX-1] assay and a final concentration of 10 µM AA in the CHO[hCOX-2] assay. […] The samples are centrifuged at 300 x g at 4°C for 10 min, and an aliquot of the clarified supernatant is appropriately diluted for the determination of PGE2 levels using an enzyme-linked immunoassay for PGE2 (Correlate PGE2 enzyme immunoassay kit, Assay Designs, Inc.). Cyclooxygenase activity in the absence of test compounds is determined as the difference in PGE2 levels of cells challenged with arachidonic acid versus the PGE2 levels in cells mock-challenged with ethanol vehicle. Inhibition of PGE2 synthesis by test compounds is calculated as a percentage of the activity in the presence of drug versus the activity in the positive control samples.
In the assay, inhibition is determined by measuring the amount of prostaglandin E2 (PGE2) synthesized in the presence of arachidonic acid, cyclooxygenase-1 or cyclooxygenase-2 and a putative inhibitor.

Experiment [1] deals with T2, COX-2 (Homo sapiens, UniProt P35354).
T2 sequence (P35354 18-604): T1 sequence (P35354 18-604)
Description: Human whole blood assay, COX-2 (LPS-induced PGE2 production). The class given is cell-based. On the set-up: endogenous in cells; host or cells: fresh heparinized human whole blood from volunteers, induced with LPS. Conditions: human whole blood, LPS, 24 hours. The source says:
As well, platelets in whole blood contain a large amount of the COX-1 enzyme. Immediately following blood clotting, platelets are activated through a thrombin-mediated mechanism. […] Therefore, the degree of selectivity by the test compound can be determined by measuring the levels of PGE2 after LPS induction (COX-2) and TxB2 following blood clotting (COX-1) in the same assay.
A. COX-2 (LPS-induced PGE2 production)
Fresh blood is collected in heparinized tubes by venipuncture from both male and female volunteers. The subjects have no apparent inflammatory conditions and have not taken any NSAIDs for at least 7 days prior to blood collection. Plasma is immediately obtained from a 2mL blood aliquot to use as blank (basal levels of PGE2).

Experiment [2] deals with T2, COX-2. Description: Assay of the activity of purified human COX-2 (TMPD chromogenic assay). The class given is biochemical. The arrangement: made in house; host or cells: Sf9 cells. Conditions: purified enzyme, TMPD oxidation. The method, then:
Assay of the activity of purified human COX-2
The assay mixture (180 µL) contains 100 mM sodium phosphate, pH 6.5, 2 mM genapol X-100, 1 µM hematin, 1 mg/ml gelatin , 80-100 units of purified enzyme (One unit of enzyme is defined as the amount of enzyme required to produce an O.D. change of 0.001/min at 610 nm) and 4 µL of the test compound in DMSO. The mixture is pre-incubated at room temperature (22°C) for 15 minutes prior to initiation of the enzymatic reaction by the addition of 20 µL of a sonicated solution of I mM arachidonic acid (AA) and 1 mM TMPD in assay buffer (without enzyme or hematin). The enzymatic activity is measured by estimation of the initial velocity of TMPD oxidation over the first 36 sec of the reaction. […] IC50 values are derived from 4-parameter least squares non-linear regression analysis of the log-dose vs % inhibition plot.

Setting [3] is: Table IV, read-out: COX-2(IC50, µM) CHO.
Setting [4] is: Table IV, read-out: COX-2(IC50, µM) HWB.
Setting [5] is: Table IV, read-out: COX-2(IC50, µM) TMPD.
The mark [6] stands for this setting: Table III, read-out: COX-2 (IC50) CHO.
The mark [7] stands for this setting: Table III, read-out: COX-2 (IC50) HWB.
Setting [8] is: Table III, read-out: COX-2 (IC50) TMPD.

Like-named read-outs stand apart in the source and are kept apart here. Some results are limits rather than exact numbers.

In turn, `CC[C@@]1(C)OC(=O)C(Oc2ccc(F)cc2)=C1c1ccc(S(C)(=O)=O)cc1` [Example 163, (5R)-3-(4-Fluorophenoxy)-5-ethyl-5-methyl-4-(4-methylsulfonyl) phenyl-5H-furan-2-one] registered a median effective dose (ED50) in the experiment with Male Sprague-Dawley rats of 0.64 mg/kg.
In the experiment on Male Sprague-Dawley rats, `CC(OC1=C(c2ccc(S(C)(=O)=O)cc2)C(C)(C)OC1=O)C1CC1` (stereo not drawn) [Example 134] returned an ED50 of 0.9 mg/kg.
The same measure, in the same setting: then `CCC(C)OC1=C(c2ccc(S(C)(=O)=O)cc2)C(C)(C)OC1=O` (stereo not drawn) [Example 112, 5,5-Dimethyl-3-(2-butoxy)-4-(4-methylsulfonylphenyl)-5H-furan-2-one], with 8 mg/kg; and `CC(C)COC1=C(c2ccc(S(C)(=O)=O)cc2)C(C)(C)OC1=O` [Example 149, 5,5-dimethyl-3-(isobutoxy)-4-(4-(methylsulfonyl)phenyl)-5H-furan-2-one], with 0.9 mg/kg.
The same measure, in the same setting: then `CC1(C)OC(=O)C(OC2CCC2)=C1c1ccc(S(C)(=O)=O)cc1` [Example 174], with 1.6 mg/kg.
On to `CC[C@@]1(C)OC(=O)C(Oc2ccc(OC)cc2)=C1c1ccc(S(C)(=O)=O)cc1` [Example 129, (5R)-3-(4-Methoxyphenoxy)-5-ethyl-5-methyl-4-(4-methylsulfonyl)-phenyl-5H-furan-2-one], for which the IC50 at CHO [hCOX-2] (setting [3]) is 0.15 µM; at COX-2 [1] (setting [4]) it was less than 0.41 µM; on COX-2 [2] (setting [5]) it was 5.4 µM.
Consider `CS(=O)(=O)c1ccc(C2=C(Sc3ccccc3)C(=O)OC23CCCC3)cc1` [Example 21, 4-(4-(Methylsulfonyl)phenyl)-3-phenylthio-1-oxaspiro[4.4]non-3-en-2-one], for which the IC50 was determined as 0.23 µM at CHO [hCOX-2] (setting [6]), 1.04 µM at COX-2 [1] (setting [7]) and 0.47 µM on COX-2 [2] (setting [8]).
Consider `CC1(C)OC(=O)C(Sc2nccs2)=C1c1ccc(S(C)(=O)=O)cc1` [Example 57, 3-(2-Thiazolylthio)-5,5-dimethyl-4-(4-(methylsulfonyl)phenyl)-5H-furan-2-one], for which the IC50 was found to be 2 µM at CHO [hCOX-2] (setting [3]), 23 µM at COX-2 [1] (setting [4]) and 54 µM on COX-2 [2] (setting [5]).
With `C[C@]1(CC(F)(F)F)OC(=O)C(Oc2ccc(F)cn2)=C1c1ccc(S(C)(=O)=O)cc1` [Example 164, (5R)-3-(5-Fluoro-2-pyridyloxy)-5-methyl-4-(4-methylsulfonyl) phenyl-5-(2.2.2-trifluoroethyl)-5H-furan-2-one], the ED50 in the experiment with Male Sprague-Dawley rats came to 2 mg/kg.
For the molecule `Cc1cc(OC2=C(c3ccc(S(C)(=O)=O)cc3)C(C)(C)OC2=O)ncc1Cl` [Example 121, 3-(5-Chloro-4-methyl-2-pyridyloxy)-5,5-dimethyl-4-(4-methylsulfonyl)-phenyl-5H-furan-2-one], the 50% effect level with Male Sprague-Dawley rats (ED50) was put at a dose of 10 mg/kg. This ED50 is about 5-fold higher than that of the molecule before.
For the molecule `CC1(C)OC(=O)C(Sc2ccc(F)cc2)=C1c1ccc(S(C)(=O)=O)cc1` [Example 9, 3-(4-Fluorophenylthio)-5,5-dimethyl-4-(4-(methylsulfonyl)phenyl)-5H-furan-2-one], the 50% inhibitory concentration (IC50) at CHO [hCOX-2] (setting [6]) was 0.19 µM; at COX-2 [1] (setting [7]), 0.9 µM; at COX-2 [2] (setting [8]), 0.5 µM.
Take `CC1(C)OC(=O)C(Oc2ccc3ncccc3c2)=C1c1ccc(S(C)(=O)=O)cc1` [Example 55, 3-(6-Quinolinoxy)-5,5-dimethyl-4-(4-(methylsulfonyl)phenyl)-5H-furan-2-one]: the IC50 on CHO [hCOX-2] (setting [3]) worked out at 1.8 µM; on COX-2 [1] (setting [4]) it was 1.2 µM; at COX-2 [2] (setting [5]), 43 µM.
Turning to `CC1(C)OC(=O)C(Oc2cccc(N)n2)=C1c1ccc(S(C)(=O)=O)cc1` [Example 53, 3-(6-Amino-2-pyridyloxy)-5,5-dimethyl-4-(4-(methylsulfonyl)phenyl)-5H-furan-2-one], the IC50 at CHO [hCOX-2] (setting [3]) was more than 5 µM; at COX-2 [1] (setting [4]), 3 µM; on COX-2 [2] (setting [5]), 47 µM.
On to `CC[C@@]1(C)OC(=O)C(Oc2ccc(F)c(F)c2)=C1c1ccc(S(C)(=O)=O)cc1` [Example 117, (5R)-3-(3,4-Difluorophenoxy)-5-ethyl-5-methyl-4-(4-methylsulfonyl)phenyl-5H-furan-2-one], for which the ED50 in the experiment with Male Sprague-Dawley rats turned out to be 1 mg/kg.
`Cc1ccc(OC2=C(c3ccc(S(C)(=O)=O)cc3)C(C)(C)OC2=O)cn1` [Example 39, 3-(2-Methyl-5-pyridyloxy)-5,5-dimethyl-4-(4-(methylsulfonyl)phenyl)-5H-furan-2-one]: the IC50 was determined as 0.92 µM at CHO [hCOX-2] (setting [3]), 0.08 µM on COX-2 [1] (setting [4]) and 3.3 µM at COX-2 [2] (setting [5]).
For `COC1(C)OC(=O)C(Oc2ccc(F)c(F)c2)=C1c1ccc(S(C)(=O)=O)cc1` (stereo not drawn) [Example 24c, 3-(3,4-Difluorophenoxy)-5-methoxy-5-methyl-4-(4-(methylsulfonyl)-phenyl)-5H-furan-2-one], the IC50 was 0.03 µM at CHO [hCOX-2] (setting [6]), less than 0.41 µM on COX-2 [1] (setting [7]) and 3 µM on COX-2 [2] (setting [8]).
For `CCCC1(C)OC(=O)C(Oc2ccc(F)cc2)=C1c1ccc(S(C)(=O)=O)cc1` (stereo not drawn) [Example 124, 3-(4-Fluorophenoxy)-5-methyl-4-(4-methylsulfonyl)phenyl-5-propyl-5H-furan-2-one], the figures for the IC50 on CHO [hCOX-2] (setting [3]), on COX-2 [1] (setting [4]) and at COX-2 [2] (setting [5]) were 0.03 µM, less than 0.41 µM and 6.3 µM, respectively.
For the molecule `CC1(C)OC(=O)C(OC2CCc3ccccc32)=C1c1ccc(S(C)(=O)=O)cc1` (stereo not drawn) [Example 175, 3-(1-Indanyloxy)-5,5-dimethyl-4-(4-(methylsulfonyl)phenyl)-5H-furan-2-one], the IC50 on CHO [hCOX-2] (setting [3]) amounted to 0.05 µM; at COX-2 [1] (setting [4]), 2.3 µM; at COX-2 [2] (setting [5]), 9.5 µM.
As for `CC[C@@]1(C)OC(=O)C(Oc2ccc(Br)cn2)=C1c1ccc(S(C)(=O)=O)cc1` [Example 202, (5R)-3-(5-bromo-2-pyridyloxy)-4-(4-methylsulfonylphenyl)-5-ethyl-5-methyl-5H-furan-2-one], it took a dose of 5.4 mg/kg to reach the 50% effect level in the experiment with Male Sprague-Dawley rats (ED50).
For the molecule `CC1(C)OC(=O)C(Sc2ccc(Cl)cn2)=C1c1ccc(S(C)(=O)=O)cc1` [Example 45, 3-(5-Chloro-2-pyridylthio)-5,5-dimethyl-4-(4-methylsulfonyl)phenyl-5H-furan-2-one], the values for the 50% inhibitory concentration (IC50) on CHO [hCOX-2] (setting [3]), on COX-2 [1] (setting [4]) and on COX-2 [2] (setting [5]) were more than 5 µM, 1.8 µM and 11 µM, respectively.

The values are drawn from patent EP0863891B1, “(METHYLSULFONYL)PHENYL-2-(5H)-FURANONES AS COX-2 INHIBITORS” (Merck Frosst Canada & Co., priority 1995, dated 1997).
